Measurements: patent US11753403B2, “EIF4E inhibitors and uses thereof” (PIC Therapeutics, Inc., priority 2020, dated 2023)

target: Human eIF4E (aa 28-217) / biotin labeled 4G2 peptide (Homo sapiens (Human), UniProt P06730); test: Human eIF4E/4G2 binding assay (TR-FRET); conditions: Human eIF4E/4G2 TR-FRET binding assay; head says IC50, legend says EC50
Method: Example 5. Compound Testing in Human eIF4E/4G2 Binding Assay
Human eIF4E (aa 28-217) with a C-terminal His-tag was expressed in E. coli in inclusion bodies. The protein was solubilized with 8 M urea and purified under denaturing conditions using nickel-charged HisTrap HP columns (GE Healthcare). The purified protein was then refolded by diluting in 20 mM Hepes pH 7.0, 0.5 M NaCl, 1 mM DTT, 1 mM EDTA, 0.5 M arginine plus 6 M urea, and then dialyzing overnight into the same buffer without the urea. The protein was further dialyzed into 20 mM Hepes, pH 6.5, 50 mM NaCl, 1 mM EDTA, 1 mM DTT, and concentrated using Hitrap SP sepharose FF columns (GE Healthcare). The concentrated protein was dialyzed into 20 mM Hepes, pH 7.0, 0.5M NaCl, 5 mM DTT and 10% glycerol, and stored at −80° C. until use.
Test compounds (3.43 mM stock in DMSO) were diluted 2-fold in series in DMSO (10 concentration points). Compound solutions (1.2 μl/well) were added into black 384-well polypropylene microplates (Matrix, Thermal Scientific). Twenty-two microliters per well of Assay Buffer (50 mM NaPi, pH 6.5, 50 mM KCl, 1 mM DTT and 0.5 mg/ml gamma globulin) and eight microliters per well of 82.5 nM purified eIF4E in Assay Buffer were added. The samples were incubated at room temperature (20-23° C.) for 4 hours. Biotin labeled 4G2 peptide (Ac-Lys-Gln-Tyr-Asp-Arg-Glu-Phe-Leu-Leu-Asp-Phe-Gln-Phe-Met-Pro-Lys(Aha-Bio)-NH2, 1.75 μM stock in DMSO) was diluted to 0.14 μM in Assay Buffer (without DTT) and 5 μl/well was added. The samples were incubated at room temperature for 20 min. Five microliters per well of 6.4 nM Eu-streptavidin (Eu-SA, Perkin Elmer) and 80 nM Allophycocyanin (APC)-anti His antibody (Columbia Biosciences) in Assay Buffer (without DTT) were then added and the samples were incubated at room temperature for 20 min.
Assay signals were monitored by reading excitation at 340 nm and emission fluorescence at 615 nm and 665 nm on an Envision reader (Perkin Elmer). Normalized TR-FRET (time-resolved fluorescence resonance energy transfer) assay signal (Rn) was calculated by the formula: Rn=[(A−Ba−C×D)/(D−Bd)]×(Dc−Bd) Where A is the fluorescence intensity of the sample at 665 nm, • D is the fluorescence intensity of the sample at 615 nm, • Ba and Bd are plate backgrounds at 665 nm and 615 nm, respectively, • Dc is the fluorescence intensity of 0.78 nM Eu-SA in the assay buffer at 615 nm The cross-talk factor (C) is determined by the following formula: C=(Ac−Ba)/(Dc−Bd) Where Ac is the fluorescence intensity of 0.78 nM Eu-SA in the assay buffer at 665 nm.
IC50 values were calculated using xLFit program (IDBS). Table 2 below lists EC50 of some compounds, wherein A represents EC50≤1 uM; B represents 1 uM<EC50≤10 uM; and C represents EC50>10 uM.

Chain of Human eIF4E (aa 28-217) / biotin labeled 4G2 peptide (P06730 28-217): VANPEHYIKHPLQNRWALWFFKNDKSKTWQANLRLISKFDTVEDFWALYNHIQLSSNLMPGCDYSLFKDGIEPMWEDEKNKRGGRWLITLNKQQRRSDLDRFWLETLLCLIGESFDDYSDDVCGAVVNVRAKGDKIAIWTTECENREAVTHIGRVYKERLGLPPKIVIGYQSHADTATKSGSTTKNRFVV

SMILES | IC50
COCCOc1ccc(-c2nc(Nc3ncc(-c4cccs4)cc3C(=O)O)sc2CC(C)C)cc1Cl [I-327] | ≤ 1000 nM
CC(C)Cc1sc(NCC(NC(=O)OC(C)(C)C)C(=O)O)nc1-c1ccc(Cl)c(Cl)c1 (centres unmarked) [I-137, 2-(tert-butoxycarbonylamino)-3-(4-(3,4-dichlorophenyl)-5-isobutylthiazol-2-ylamino) propanoic acid] | 1000 to 10000 nM
CC(C)Cc1sc(N(CCC(=O)O)Cc2c[nH]c3ccccc23)nc1-c1ccc(Cl)c(Cl)c1 [I-54] | 1000 to 10000 nM
CC(C)Cc1sc(N(CCC(=O)O)Cc2cccc3c2OCO3)nc1-c1ccc(Cl)c(Cl)c1 [I-48] | ≤ 1000 nM
O=C(O)C(CNc1nc(-c2ccc(Cl)c(Cl)c2)c(C2CC2)s1)Cc1ccc2[nH]ccc2c1 (centres unmarked) [I-17] | ≤ 1000 nM
CC(C)Cc1sc(Nc2cc(-c3ccccc3)sc2C(=O)O)nc1-c1ccc(Cl)c(Cl)c1 [I-270] | ≤ 1000 nM
CC(C)c1sc(Nc2ncccc2C(=O)O)nc1-c1ccc(Cl)c(C(F)(F)F)c1 [I-261] | ≤ 1000 nM
CSc1ccc(-c2nc(N(CCC(=O)O)Cc3ccccc3)sc2CC(C)C)cc1 [I-127] | 1000 to 10000 nM
CC(C)c1sc(NCC(Cc2ccc3[nH]ccc3c2)C(=O)O)nc1-c1ccc(Cl)c(Cl)c1 (centres unmarked) [I-10] | 1000 to 10000 nM
CC(C)Cc1sc(Nc2ncccc2C(=O)O)nc1-c1ccc(Cl)c(Cl)c1 [I-233] | ≤ 1000 nM
Cc1cc(CC(CNc2nc(-c3ccc(Cl)c(Cl)c3)c(CC(C)C)s2)C(=O)O)ccn1 (centres unmarked) [I-151] | 1000 to 10000 nM
CC(C)c1sc(NCC(Cc2cccc3[nH]ccc23)C(=O)O)nc1-c1ccc(Cl)cc1 (centres unmarked) [I-44] | 1000 to 10000 nM
CNC(=O)CCN(Cc1ccccc1)c1nc(-c2ccc(Cl)c(Cl)c2)c(CC(C)C)s1 [I-200, 3-(benzyl(4-(3,4-dichlorophenyl)-5-isobutylthiazol-2-yl)amino)-N-methylpropanamide] | > 10000 nM
O=C(O)c1sc(C2CCCC2)cc1Nc1nc(Cc2ccccc2)c(-c2ccccc2)s1 [I-310] | ≤ 1000 nM
Cc1c(-c2ccccc2)sc(C(=O)O)c1Nc1nc(-c2ccc(Cl)c(Cl)c2)c(CC(C)C)s1 [I-275] | ≤ 1000 nM
CC(C)Cc1sc(N(CCc2nnn[nH]2)Cc2ccccc2)nc1-c1ccc(Cl)c(Cl)c1 [I-100] | ≤ 1000 nM

SMILES | IC50
CC(C)Cc1sc(N2CCN(C(=O)c3ccccc3)C(C(=O)O)C2)nc1-c1ccc(Cl)c(Cl)c1 (centres unmarked) [I-246, 1-benzoyl-4-(4-(3,4-dichlorophenyl)-5-isobutylthiazol-2-yl)piperazine-2-carboxylic acid] | 1000 to 10000 nM
CC(C)c1sc(Nc2ncc(C3CC3)cc2C(=O)O)nc1-c1ccc(Cl)c(Cl)c1 [I-283] | ≤ 1000 nM
CC(C)Cc1sc(N(CCC(=O)O)CC2CC2)nc1-c1ccc(Cl)c(Cl)c1 [I-105] | 1000 to 10000 nM
CC(C)Cc1sc(Nc2ncc(C(F)(F)F)cc2C(=O)O)nc1-c1ccc2ccccc2c1 [I-321] | ≤ 1000 nM
CC(C)Cc1sc(Nc2cccc(C(F)(F)F)c2C(=O)O)nc1-c1ccc(Cl)c(Cl)c1 [I-236] | ≤ 1000 nM
CC(C)Cc1sc(-c2ccc(Br)c(C(=O)O)c2)nc1-c1ccc(Cl)c(Cl)c1 [I-224, 2-bromo-5-(4-(3,4-dichlorophenyl)-5-isobutylthiazol-2-yl)benzoic acid] | 1000 to 10000 nM
CNC(=O)N1CCN(c2nc(-c3ccc(Cl)c(Cl)c3)c(CC(C)C)s2)CC1C(=O)O (centres unmarked) [I-251, 4-(4-(3,4-dichlorophenyl)-5-isobutylthiazol-2-yl)-1-(methylcarbamoyl)piperazine-2-carboxylic acid] | 1000 to 10000 nM
CC(C)Cc1sc(N(CCC(=O)O)Cc2ccncc2)nc1-c1ccc(Cl)c(Cl)c1 [I-63] | 1000 to 10000 nM
CC(C)Cc1sc(Nc2nccc(Cl)c2C(=O)O)nc1-c1ccc(Cl)c(Cl)c1 [I-242] | ≤ 1000 nM
CC(C)Cc1sc(NCC(Cc2ccc3[nH]ccc3c2)C(=O)O)nc1-c1ccc(Cl)c(Cl)c1 (centres unmarked) [I-27] | ≤ 1000 nM
CC(C)Cc1sc(Nc2cc(C(=O)O)cc(-c3ccccc3)c2)nc1-c1ccc(Cl)c(Cl)c1 [I-215, 5-(4-(3,4-dichlorophenyl)-5-isobutylthiazol-2-ylamino)biphenyl-3-carboxylic acid] | ≤ 1000 nM
COc1ncc(CC(CNc2nc(-c3ccc(Cl)c(Cl)c3)c(CC(C)C)s2)C(=O)O)cn1 (centres unmarked) [I-160] | > 10000 nM
CC(C)Cc1sc(N(CCc2ccccc2)CC(=O)O)nc1-c1ccc(Cl)c(Cl)c1 [I-60] | ≤ 1000 nM
CC(C)Cc1sc(NCC(Cc2ccc(S(N)(=O)=O)cc2)C(=O)O)nc1-c1ccc(Cl)c(Cl)c1 (centres unmarked) [I-176] | 1000 to 10000 nM
CC(C)Cc1sc(N2CCN(C(=O)Nc3ccccc3)C(C(=O)O)C2)nc1-c1ccc(Cl)c(Cl)c1 (centres unmarked) [I-252] | ≤ 1000 nM
CC(C)Cc1sc(N(CCC(=O)O)Cc2ccccc2)nc1-c1ccncc1 [I-84] | > 10000 nM

Continued, values first:

IC50 | SMILES
> 10000 nM | COc1ccc(-c2nc(N(CCC(=O)O)Cc3ccccc3)sc2C(C)C)cc1 [I-76]
≤ 1000 nM | CC(C)c1sc(Nc2c(C(=O)O)sc3ccccc23)nc1-c1ccc(Cl)c(C(F)(F)F)c1 [I-281]
≤ 1000 nM | COc1ccccc1CN(CCC(=O)O)c1nc(-c2ccc(Cl)c(Cl)c2)c(CC(C)C)s1 [I-49]
1000 to 10000 nM | Cc1cc(CC(CNc2nc(-c3ccc(Cl)c(Cl)c3)c(CC(C)C)s2)C(=O)O)cc(C)n1 (centres unmarked) [I-150]
1000 to 10000 nM | CC(C)Cc1sc(N2CCN(C(=O)c3cccnc3)C(C(=O)O)C2)nc1-c1ccc(Cl)c(Cl)c1 (centres unmarked) [I-250]
1000 to 10000 nM | CC(C)Cc1sc(N(CCC(=O)NCC(=O)O)Cc2ccccc2)nc1-c1ccc(Cl)c(Cl)c1 [I-196]
1000 to 10000 nM | CC(C)Cc1sc(N(CCNC(=N)N)Cc2ccccc2)nc1-c1ccc(Cl)c(Cl)c1 [I-232, 2-(2-(benzyl(4-(3,4-dichlorophenyl)-5-isobutylthiazol-2-yl)amino)ethyl)guanidine]
1000 to 10000 nM | COc1cccc(-c2nc(NCC(Cc3ccc4[nH]ccc4c3)C(=O)O)sc2C(C)C)c1 (centres unmarked) [I-37]
1000 to 10000 nM | CC(C)Cc1sc(NCC(Cc2ccccn2)C(=O)O)nc1-c1ccc(Cl)c(Cl)c1 (centres unmarked) [I-158]
1000 to 10000 nM | CC(C)Cc1sc(NCC(Cc2c[nH]c3ccccc23)C(=O)O)nc1-c1ccc(Cl)c(Cl)c1 (centres unmarked) [I-26]
> 10000 nM | CC(C)Cc1sc(N(CCC(=O)N2CCN(C)CC2)Cc2ccccc2)nc1-c1ccc(Cl)c(Cl)c1 [I-133, 3-(benzyl(4-(3,4-dichlorophenyl)-5-isobutylthiazol-2-yl)amino)-1-(4-methylpiperazin-1-yl)propan-1-one]
1000 to 10000 nM | O=C(O)C(CNc1nc(-c2ccc(Cl)c(Cl)c2)c(C2CC2)s1)Cc1ccccc1 (centres unmarked) [I-11]
1000 to 10000 nM | CC(C)Cc1sc(NCC(Cc2ccc(C(N)=O)cc2)C(=O)O)nc1-c1ccc(Cl)c(Cl)c1 (centres unmarked) [I-166, 2-(4-carbamoylbenzyl)-3-(4-(3,4-dichlorophenyl)-5-isobutylthiazol-2-ylamino)propanoic acid]
1000 to 10000 nM | CC(C)Cc1sc(N(CCCCN(C)C)CCC(=O)O)nc1-c1ccc(Cl)c(Cl)c1 [I-147, 3-((4-(3,4-dichlorophenyl)-5-isobutylthiazol-2-yl)(4-(dimethylamino)butyl)amino) propanoic acid]
1000 to 10000 nM | COCc1sc(N(CCC(=O)O)Cc2ccccc2)nc1-c1ccc(Cl)c(Cl)c1 [I-120, 3-(benzyl(4-(3,4-dichlorophenyl)-5-(methoxymethyl)thiazol-2-yl)amino)propanoic acid]
1000 to 10000 nM | CC(C)Cc1sc(N(CCC(=O)O)Cc2ccccc2)nc1-c1cccc(F)c1 [I-82]
1000 to 10000 nM | CC(C)Cc1sc(N(CCC(=O)O)Cc2ccccc2O)nc1-c1ccc(Cl)c(Cl)c1 [I-50]
≤ 1000 nM | COc1ccc(Nc2nc(-c3ccc(Cl)c(Cl)c3)c(CC(C)C)s2)cc1C(=O)O [I-210]
1000 to 10000 nM | CC(C)Cc1sc(NCC(Cc2cccc(S(N)(=O)=O)c2)C(=O)O)nc1-c1ccc(Cl)c(Cl)c1 (centres unmarked) [I-173]
> 10000 nM | CC(C)Cc1sc(N(CCCCCC(N)=O)CCC(=O)O)nc1-c1ccc(Cl)c(Cl)c1 [I-149]
1000 to 10000 nM | O=Cc1sc(N(CCC(=O)O)Cc2ccccc2)nc1-c1ccc(Cl)c(Cl)c1 [I-119, 3-(benzyl(4-(3,4-dichlorophenyl)-5-formylthiazol-2-yl)amino)propanoic acid]
